Experimental findings from patent EP3553052A1, “5-OXO-4,5-DIHYDRO-1H-1,2,4-TRIAZOL DERIVATIVES FOR THE TREATMENT OF CANCER” (Bayer AG, priority 2018, dated 2019) are described below.

For one assay, the target named is T1, human DHODH (Homo sapiens, UniProt Q02127).
T1 construct: purchased Novus NBP1-98916
Description: DHODH enzymatic assay - 1 (DCIP bleaching). Format: biochemical. To be noted: 2 nM DHODH, 1 mM dihydroorotate, 0.1 mM decylubiquinone, 0.06 mM DCIP, pH 8.0, 32 degree celsius; read-out: Target IC50. The protocol: The assay was conducted in buffer containing 50 mM Tris, 0.1% Triton X-100, 150 mM potassium chloride, 2 nM DHODH, 1 mM dihydroorotate, 0.1 mM decylubiquinone, 0.06 mM DCIP, and 2% DMSO at pH 8.0 at 32 degree celsius. The reaction was initiated by addition of substrates. Enzyme activity was monitored kinetically by the reduction in DCIP absorbance at 600 nm. Purified recombinant human DHODH enzyme was purchased from Novus (cat. no. NBP1-98916). Other chemicals were purchased from Sigma-Aldrich. Absorbance measurements were obtained using a BMG clarion star plate-reading spectrophotometer. Table 1: DHODH enzymatic assay : IC50 values of examples in in vitro assay 1

The next assay concerns THP-1 cells. Description: THP-1 proliferation assay - 1 (AML). It counts as cell-based. The settings on record: Homo sapiens, 72h incubation, CellTiter-Glo cell viability, read-out: Target IC50. As for the experimental part: In vitro Assay 2: THP-1 proliferation assay - 1 (AML) 2000 cells/well of THP-1 cells were seeded in RPMI 1640 with Glutamax (Gibco, #11875-093) and 10% fetal calf serum (Biochrom, #S0615) in 384-well plates. The next day, cells were incubated with different concentrations of test compounds for 72h. Cellular viability was analyzed using CellTiter-Glo® Luminescent Cell Viability Assay (Promega, #G7570) according to manufacturer's instructions.
(ATP-based viability assays read luminescence as a measure of living cells.)

The IC50 is the concentration that inhibits the measured activity by half.

T1 sequence (Q02127 whole entry): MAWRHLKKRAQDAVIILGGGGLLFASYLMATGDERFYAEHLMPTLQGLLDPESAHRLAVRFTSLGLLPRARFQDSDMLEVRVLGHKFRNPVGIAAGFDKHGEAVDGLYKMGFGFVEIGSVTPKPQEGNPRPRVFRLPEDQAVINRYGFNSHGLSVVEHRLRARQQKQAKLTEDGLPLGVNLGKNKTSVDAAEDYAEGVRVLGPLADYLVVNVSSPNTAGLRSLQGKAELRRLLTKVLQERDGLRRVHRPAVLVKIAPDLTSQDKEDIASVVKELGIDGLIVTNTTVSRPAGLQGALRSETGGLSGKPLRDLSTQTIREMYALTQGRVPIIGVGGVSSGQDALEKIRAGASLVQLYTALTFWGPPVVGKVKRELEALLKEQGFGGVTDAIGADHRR

With `CCCCOc1cc(-n2nc(-c3ccccc3Cl)[nH]c2=O)c(F)cc1C(=O)Nc1c(F)cccc1Cl` [Compound I, 2-butoxy-N-(2-chloro-6-fluorophenyl)-4-[3-(2-chlorophenyl)-5-oxo-4,5-dihydro-1H-1,2,4-triazol-1-yl]-5-fluorobenzamide], the results for the half-maximal inhibitory concentration (IC50) on human DHODH and with THP-1 cells were 3 µM and 0.305 µM, respectively.
